The results in this text go back to publication PMC12470260, “Functional Divergence of Two General Odorant-Binding Proteins to Sex Pheromones and Host Plant Volatiles in Adoxophyes orana (Lepidoptera: Tortricidae)” (Insects, 2025).

The target in one experiment is AoraGOBP1. The experiment in a line: Fluorescence competitive binding assay (1-NPN probe) with rAoraGOBP1. Also noted: species or system Adoxophyes orana. The settings on record: for Ki: competitive displacement of 1-NPN, 20 mM Tris-HCl pH 7.4, mean ± S.E.M., read-out: Ki (μM) GOBP1; for Binding affinity to AoraGOBP1 (in words): fluorescence competitive binding. Here is the method:
(§1) The fluorescent competitive binding assays were conducted using an F-2700 spectrophotofluorometer (Hitachi, Tokyo, Japan) to evaluate the binding affinities of AoraGOBP1 and AoraGOBP2 to sex pheromones, and HPVs. […] With the increase of 1 − NPN concentration, the change in fluorescence intensity decreased and eventually stabilized, and the data were recorded. Binding dissociation constant K1−NPN (Kd) of 1 − NPN to rAoraGOBPs were determined. Then, 2 mL protein solution containing 2 μM rAoraGOBPs was titrated with 1 μM of each ligand to a final concentration of 18 µM. The fluorescence intensity was measured and recorded after a 2 min reaction. The Ki for competitive binding of each ligand to rAoraGOBPs using the formula Ki = [IC50]/(1 + [1 − NPN]/K1−NPN), where IC50 is the ligand concentration corresponding to 50% displacement of 1 − NPN. Each assay was replicated three times biologically. The Kd and Ki are presented as mean ± S.E.M.

For another experiment, the target named is AoraGOBP2. In words: Fluorescence competitive binding assay (1-NPN probe) with rAoraGOBP2. More on the design: species or system Adoxophyes orana. Conditions: for Ki: competitive displacement of 1-NPN, 20 mM Tris-HCl pH 7.4, mean ± S.E.M., read-out: Ki (μM) GOBP2. Here is the method: as §1
[1] abbreviates: fluorescent probe titration, 2 μM protein, pH 7.4.

“And” between values parts separate entries of the source, which are not always exact repeats. Equal values may be shown once.

For `CC(C)=CCCC(C)=CC=O` (mixture of isomers) [Citral], at AoraGOBP1 (2 μM protein), the Ki (as a rule, a dissociation constant, usually derived from enzyme kinetics or from competition with a known ligand) was 11.7 ± 0.44 µM.
For `c1ccc(Nc2cccc3ccccc23)cc1` [1 − NPN, reference compound], the equilibrium dissociation constant (Kd) (commonly the constant that tells how readily two partners part at equilibrium) on AoraGOBP2 (setting [1]) came out at 1.65 µM; on AoraGOBP1 (setting [1]), 18.4 µM.
On to `C=CC(O)CC` (stereo not shown) [1-Penten-3-ol], for which the Ki at AoraGOBP1 (2 μM protein) came out at 10.2 ± 0.14 µM.
Regarding `CCCCCCCCCCCCO` [12:OH], at AoraGOBP2 (2 μM protein), the Ki is 1.74 ± 0.03 µM.
As for `CC/C=C\CCOC(=O)CC(C)C` [(Z)-3-Hexen-1-yl 3-methylbutanoate], at AoraGOBP1 (2 μM protein), the Ki stood at 6.21 ± 0.18 µM.
As for `CCCCCCCCCC=O` [Decanal], the inhibitory constant (Ki) at AoraGOBP1 (2 μM protein) was 0.78 ± 0.15 µM.
On to `CCCCOC(=O)c1ccccc1C(=O)OCCCC` [Dibutyl phthalate], for which the Ki at AoraGOBP2 (2 μM protein) was determined as 5.33 ± 0.04 µM; at AoraGOBP1 (2 μM protein), 10.27 ± 0.07 µM.
With `CCOC(=O)C(C)CC` (stereo not shown) [Ethyl 2-methylbutanoate], at AoraGOBP1 (2 μM protein), the Ki came to 11.78 ± 0.08 µM.
As to `CC(C)=CCC/C(C)=C/CC/C(C)=C/CO` [Farnesol], the Ki on AoraGOBP2 (2 μM protein) was found to be 1.13 ± 0.02 µM.
With `CC(C)C=O` [Isobutyraldehyde], on AoraGOBP1 (2 μM protein), the inhibitory constant (Ki) was found to be 11.9 ± 0.41 µM.
The same measure, in the same setting: for `COC(=O)c1ccccc1O` [Methyl salicylate] the value was 4.41 ± 0.2 µM; for `CCCCC/C=C\C=C\C(=O)OCC` [Pear ester], 5.08 ± 0.13 µM.
Consider `CCCC/C=C\CCCCCCCCOC(C)=O` [Z9-14:Ac, (Z)-9-tetradecenyl acetate], for which the Ki at AoraGOBP2 (2 μM protein) was found to be 6.46 ± 0.18 µM. The “Binding affinity to AoraGOBP2 (in words)” value in the experiment with AoraGOBP2 (fluorescence competitive binding) is “moderate binding affinity”. In addition, the “Binding affinity to AoraGOBP1 (in words)” value in the experiment with AoraGOBP1 is listed as “did not”.
On to `CCCC/C=C\CCCCCCCCO` [Z9-14:OH, (Z)-9-tetradecen-1-ol], for which the Ki at AoraGOBP2 (2 μM protein) is 1.49 ± 0.01 µM. The “Binding affinity to AoraGOBP1 (in words)” value with AoraGOBP1 is “did not”.
On to `CCCC/C=C\CCCCCCCCO` [Z11-14:OH, (Z)-9-tetradecen-1-ol], for which, on AoraGOBP2 (2 μM protein), the inhibition constant Ki is 1.21 µM and 1.24 µM. Moreover, the “Binding affinity to AoraGOBP1 (in words)” value with AoraGOBP1 is listed as “did not”.
On to Farnesene, for which, at AoraGOBP2 (2 μM protein), the inhibitory constant (Ki) is 6.96 ± 0.32 µM.
